Assay results taken from patent US11912701B2, “Protein kinase inhibitors for promoting liver regeneration or reducing or preventing hepatocyte death” (HEPAREGENIX GMBH, priority 2018, dated 2024).

Tests used:
Format in all cases: biochemical
BRaf = target: T1, BRaf (Homo sapiens, UniProt P15056); test: 33PanQinase enzyme assay, BRaf; settings: ratio IC50(BRaf)/IC50(MKK4)
T1 construct: purchased ProQinase GmbH, Freiburg, Germany (33PanQinase Assay Service)
Procedure: (§1) The kinase activities of the compounds of the invention were measured using the 33PanQinase® Assay Service provided by ProQinase GmbH, Freiburg, Germany. Details of the assay conditions are disclosed on the website of ProQinase (https://www.proginase.com/products-services-biochemical-assay-services/kinase-assays). In brief, all kinase assays were performed in 96-well FlashPlates™ from PerkinElmer (Boston, MA, USA) in a 50 μl reaction volume. The reaction cocktail was pipetted in four steps in the following order: • 20 μl of assay buffer (standard buffer) • 5 μl of ATP solution (in H2O) • 5 μl of test compound (in 10% DMSO) • 20 μl enzyme/subtrate mix
(§2) The reaction cocktails were incubated at 30° C. for 60 minutes. The reaction is stopped with 50 μl of 2% (v/v) H3PO4, plates were aspirated and washed two times with 200 μl 0.9% (w/v) NaCl. Incorporation of ^33Pi was determined with a microplate scintillation counter (Microbeta, Wallac).
(§3) All assays were performed with a BeckmanCoulter/SAGIAN™ Core System.
(§4) In case of single concentration assays, the potency of the test compound is expressed as % residual activity. […] The fitting method used was a least-squares fit.
(§5) Selectivity of test compounds against BRaf, JNK1 and MKK7, altogether denominated as off-targets was calculated by the ratio of IC50 (off-target)/IC50 (MKK4) and categorized as follows: […]

JNK1 = JNK1 (Homo sapiens, UniProt P45983); test: 33PanQinase enzyme assay, JNK1; parameters: purchased ProQinase GmbH, Freiburg, Germany (33PanQinase Assay Service); settings: ratio IC50(JNK1)/IC50(MKK4)
Procedure: as §1, §2, §3, §4, §5

MKK4 = target: T2, MKK4 (Homo sapiens, UniProt P45985); test: 33PanQinase enzyme assay, MKK4; settings: for IC50: assay 'IC50', read-out: Potency MKK4 (IC50)
T2 construct: purchased ProQinase GmbH, Freiburg, Germany (33PanQinase Assay Service)
T2 sequence (P45985 1-399): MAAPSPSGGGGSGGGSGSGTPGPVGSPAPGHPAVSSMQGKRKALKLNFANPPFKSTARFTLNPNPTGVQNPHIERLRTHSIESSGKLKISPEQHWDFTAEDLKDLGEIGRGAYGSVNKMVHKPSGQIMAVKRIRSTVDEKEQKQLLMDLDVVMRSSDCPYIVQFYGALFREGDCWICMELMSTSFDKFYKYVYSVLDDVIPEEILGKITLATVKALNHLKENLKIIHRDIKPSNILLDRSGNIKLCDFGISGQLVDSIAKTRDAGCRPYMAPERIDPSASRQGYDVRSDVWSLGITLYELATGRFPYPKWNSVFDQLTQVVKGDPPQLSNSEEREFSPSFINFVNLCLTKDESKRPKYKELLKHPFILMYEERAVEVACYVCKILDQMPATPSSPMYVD
Procedure: as §1, §2, §3, §4
Inhibition potency against MKK4 is categorized as follows:
Assay at single concentration (100 nM):

MKK7 = target: T3, MKK7 (Homo sapiens, UniProt O14733); test: 33PanQinase enzyme assay, MKK7; parameters: purchased ProQinase GmbH, Freiburg, Germany (33PanQinase Assay Service); settings: ratio IC50(MKK7)/IC50(MKK4)
T3 sequence (O14733 1-419): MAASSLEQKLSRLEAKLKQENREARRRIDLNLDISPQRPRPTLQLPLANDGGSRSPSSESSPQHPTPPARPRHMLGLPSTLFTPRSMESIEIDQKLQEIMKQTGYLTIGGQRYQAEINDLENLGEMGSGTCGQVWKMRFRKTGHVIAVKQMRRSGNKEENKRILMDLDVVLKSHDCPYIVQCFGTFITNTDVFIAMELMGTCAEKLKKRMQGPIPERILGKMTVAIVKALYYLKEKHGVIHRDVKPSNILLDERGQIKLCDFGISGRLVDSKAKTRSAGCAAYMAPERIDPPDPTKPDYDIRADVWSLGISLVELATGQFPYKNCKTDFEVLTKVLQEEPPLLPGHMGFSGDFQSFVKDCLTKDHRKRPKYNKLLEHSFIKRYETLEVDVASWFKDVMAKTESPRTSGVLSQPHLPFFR
Procedure: as §1, §2, §3, §4, §5

Chain of JNK1 (P45983 whole entry): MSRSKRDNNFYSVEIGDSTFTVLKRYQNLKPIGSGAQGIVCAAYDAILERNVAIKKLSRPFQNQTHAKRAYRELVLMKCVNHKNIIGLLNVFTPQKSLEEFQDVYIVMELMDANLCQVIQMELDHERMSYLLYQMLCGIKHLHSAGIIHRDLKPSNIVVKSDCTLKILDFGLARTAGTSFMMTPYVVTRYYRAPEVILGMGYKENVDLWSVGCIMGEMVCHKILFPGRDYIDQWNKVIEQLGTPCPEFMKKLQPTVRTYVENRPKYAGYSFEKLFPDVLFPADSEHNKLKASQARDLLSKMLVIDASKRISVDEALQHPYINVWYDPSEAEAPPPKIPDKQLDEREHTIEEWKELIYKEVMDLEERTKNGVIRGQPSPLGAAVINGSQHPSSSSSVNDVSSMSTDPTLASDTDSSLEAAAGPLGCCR
T1 sequence (P15056 whole entry, species assumed): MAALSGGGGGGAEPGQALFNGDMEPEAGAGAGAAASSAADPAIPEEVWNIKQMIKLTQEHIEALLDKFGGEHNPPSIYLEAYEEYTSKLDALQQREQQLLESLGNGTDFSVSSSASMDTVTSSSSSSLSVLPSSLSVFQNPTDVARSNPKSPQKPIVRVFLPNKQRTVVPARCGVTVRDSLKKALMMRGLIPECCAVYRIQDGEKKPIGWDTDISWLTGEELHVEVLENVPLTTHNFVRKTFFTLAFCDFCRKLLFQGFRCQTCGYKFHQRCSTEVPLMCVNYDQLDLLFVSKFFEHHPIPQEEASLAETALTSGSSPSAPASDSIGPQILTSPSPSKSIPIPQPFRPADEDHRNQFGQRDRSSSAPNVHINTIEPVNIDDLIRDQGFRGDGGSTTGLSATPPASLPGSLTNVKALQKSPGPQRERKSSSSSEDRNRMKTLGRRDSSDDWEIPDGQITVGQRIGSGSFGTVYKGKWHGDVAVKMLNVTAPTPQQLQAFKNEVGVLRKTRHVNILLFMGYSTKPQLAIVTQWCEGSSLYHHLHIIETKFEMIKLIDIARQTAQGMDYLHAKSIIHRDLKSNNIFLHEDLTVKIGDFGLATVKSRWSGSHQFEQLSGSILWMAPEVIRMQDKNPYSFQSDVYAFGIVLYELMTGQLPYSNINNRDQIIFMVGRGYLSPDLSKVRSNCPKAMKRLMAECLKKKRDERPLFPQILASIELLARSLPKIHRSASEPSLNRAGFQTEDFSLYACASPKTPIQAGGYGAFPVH

| SMILES | Selectivity Braf, IC50(off-target)/IC50(MKK4) (BRaf) | Selectivity JNK1, IC50(off-target)/IC50(MKK4) (JNK1) | IC50 (MKK4) | Selectivity IVIKK7, IC50(off-target)/IC50(MKK4) (MKK7) | remaining activity at 0.1 µM (MKK4; single concentration 100 nM, read-out: Potency MKK4 (residual activity, assay at single concentration)) |
| --- | --- | --- | --- | --- | --- |
| CCCS(=O)(=O)Nc1c(F)ccc(C(=O)c2c[nH]c3ncc(-c4cnc(NCCOC)nc4)cc23)c1F [Example 187, N-(2,6-difluoro-3-(5-(2-((2-methoxyethyl)amino)pyrimidin-5-yl)-1H-pyrrolo[2,3-b]pyridine-3-carbonyl)phenyl)propane-1-sulfonamide] | +++ (IC50(off-target)/IC50(MKK4) > 100) | +++ (IC50(off-target)/IC50(MKK4) > 100) | 100 to 1000 nM | +++ (IC50(off-target)/IC50(MKK4) > 100) | – |
| CCCS(=O)(=O)Nc1c(F)ccc(C(=O)c2c[nH]c3ncc(-c4ccc(S(N)(=O)=O)cc4)cc23)c1F [Example 220, 4-(3-(2,4-difluoro-3-(propylsulfonamido)benzoyl)-1H-pyrrolo[2,3-b]pyridin-5-yl)benzenesulfonamide] | ++ (100 ≥ IC50(off-target)/IC50(MKK4) > 10) | ++ (100 ≥ IC50(off-target)/IC50(MKK4) > 10) | < 100 nM | +++ (IC50(off-target)/IC50(MKK4) > 100) | – |
| CCCS(=O)(=O)Nc1ccc(F)c(C(=O)c2c[nH]c3ncc(-c4cccc(F)c4)cc23)c1F [Example 115, N-(2,4-difluoro-3-(5-(3-fluorophenyl)-1H-pyrrolo[2,3-b]pyridine-3-carbonyl)phenyl)propane-1-sulfonamide] | ◯ (3 ≥ IC50(off-target)/IC50(MKK4)) | + (10 ≥ IC50(off-target)/IC50(MKK4) > 3) | 100 to 1000 nM | +++ (IC50(off-target)/IC50(MKK4) > 100) | – |
| CCCS(=O)(=O)Nc1c(F)ccc(C(=O)c2c[nH]c3ncc(-c4ccc(C5CC5)nc4C)cc23)c1F [Example 170, N-(3-(5-(6-cyclopropyl-2-methylpyridin-3-yl)-1H-pyrrolo[2,3-b]pyridine-3-carbonyl)-2,6-difluorophenyl)propane-1-sulfonamide] | +++ (IC50(off-target)/IC50(MKK4) > 100) | +++ (IC50(off-target)/IC50(MKK4) > 100) | < 100 nM | +++ (IC50(off-target)/IC50(MKK4) > 100) | – |
| CCCS(=O)(=O)Nc1c(F)ccc(C(=O)c2c[nH]c3ncc(-c4ccc(S(C)(=N)=O)cc4)cc23)c1F (centres unmarked) [Example 151, N-(2,6-difluoro-3-(5-(4-(S-methylsulfonimidoyl)phenyl)-1H-pyrrolo[2,3-b]pyridine-3-carbonyl)phenyl)propane-1-sulfonamide] | ++ (100 ≥ IC50(off-target)/IC50(MKK4) > 10) | ++ (100 ≥ IC50(off-target)/IC50(MKK4) > 10) | 100 to 1000 nM | +++ (IC50(off-target)/IC50(MKK4) > 100) | – |
| C#Cc1ncc(-c2cnc3[nH]cc(C(=O)c4ccc(F)c(NS(=O)(=O)CCC)c4F)c3c2)cn1 [Example 208, N-(3-(5-(2-ethynylpyrimidin-5-yl)-1H-pyrrolo[2,3-b]pyridine-3-carbonyl)-2,6-difluorophenyl)propane-1-sulfonamide] | ++ (100 ≥ IC50(off-target)/IC50(MKK4) > 10) | +++ (IC50(off-target)/IC50(MKK4) > 100) | < 100 nM | ++ (100 ≥ IC50(off-target)/IC50(MKK4) > 10) | – |
| CCCS(=O)(=O)Nc1c(F)ccc(C(=O)c2c[nH]c3ncc(-c4ccc(Cl)cc4C)cc23)c1F [Example 225, N-(3-(5-(4-chloro-2-methylphenyl)-1H-pyrrolo[2,3-b]pyridine-3-carbonyl)-2,6-difluorophenyl)propane-1-sulfonamide] | +++ (IC50(off-target)/IC50(MKK4) > 100) | ++ (100 ≥ IC50(off-target)/IC50(MKK4) > 10) | < 100 nM | +++ (IC50(off-target)/IC50(MKK4) > 100) | – |
| CCCS(=O)(=O)Nc1ccc(F)c(C(=O)c2c[nH]c3ncc(-c4ccccc4N)cc23)c1F [Example 122, N-(3-(5-(2-aminophenyl)-1H-pyrrolo[2,3-b]pyridine-3-carbonyl)-2,4-difluorophenyl)propane-1-sulfonamide] | ◯ (3 ≥ IC50(off-target)/IC50(MKK4)) | ◯ (3 ≥ IC50(off-target)/IC50(MKK4)) | 100 to 1000 nM | +++ (IC50(off-target)/IC50(MKK4) > 100) | – |
| CCCS(=O)(=O)Nc1ccc(F)c(C(=O)c2c[nH]c3ncc(-c4ccc(S(=O)(=O)C(F)F)cc4)cc23)c1F [Example 74, N-(3-(5-(4-((difluoromethyl)sulfonyl)phenyl)-1H-pyrrolo[2,3-b]pyridine-3-carbonyl)-2,4-difluorophenyl)propane-1-sulfonamide] | ◯ (3 ≥ IC50(off-target)/IC50(MKK4)) | + (10 ≥ IC50(off-target)/IC50(MKK4) > 3) | 100 to 1000 nM | +++ (IC50(off-target)/IC50(MKK4) > 100) | – |
| CCCS(=O)(=O)Nc1c(F)ccc(C(=O)c2c[nH]c3ncc(-c4cnc(C(C)C)nc4)cc23)c1F [Example 193, N-(2,6-difluoro-3-(5-(2-isopropylpyrimidin-5-yl)-1H-pyrrolo[2,3-b]pyridine-3-carbonyl)phenyl)propane-1-sulfonamide] | ++ (100 ≥ IC50(off-target)/IC50(MKK4) > 10) | +++ (IC50(off-target)/IC50(MKK4) > 100) | < 100 nM | +++ (IC50(off-target)/IC50(MKK4) > 100) | – |
| CCCS(=O)(=O)Nc1ccc(F)c(C(=O)c2c[nH]c3ncc(-c4ccc(N)cc4)cc23)c1F [Example 121, N-(3-(5-(4-aminophenyl)-1H-pyrrolo[2,3-b]pyridine-3-carbonyl)-2,4-difluorophenyl)propane-1-sulfonamide] | – | – | 100 to 1000 nM | – | – |

Now from value to compound:

| Selectivity Braf, IC50(off-target)/IC50(MKK4) (BRaf) | Selectivity JNK1, IC50(off-target)/IC50(MKK4) (JNK1) | IC50 (MKK4) | Selectivity IVIKK7, IC50(off-target)/IC50(MKK4) (MKK7) | remaining activity at 0.1 µM (MKK4; single concentration 100 nM, read-out: Potency MKK4 (residual activity, assay at single concentration)) | SMILES |
| --- | --- | --- | --- | --- | --- |
| ◯ (3 ≥ IC50(off-target)/IC50(MKK4)) | ◯ (3 ≥ IC50(off-target)/IC50(MKK4)) | 100 to 1000 nM | +++ (IC50(off-target)/IC50(MKK4) > 100) | – | CCCS(=O)(=O)Nc1ccc(F)c(C(=O)c2c[nH]c3ncc(-c4ccc(S(C)(=O)=O)cc4)cc23)c1F [Example 54] |
| +++ (IC50(off-target)/IC50(MKK4) > 100) | +++ (IC50(off-target)/IC50(MKK4) > 100) | < 100 nM | +++ (IC50(off-target)/IC50(MKK4) > 100) | – | CCCS(=O)(=O)Nc1c(F)ccc(C(=O)c2c[nH]c3ncc(-c4ccc(F)cc4C)cc23)c1F [Example 217, N-(2,6-difluoro-3-(5-(4-fluoro-2-methylphenyl)-1H-pyrrolo[2,3-b]pyridine-3-carbonyl)phenyl)propane-1-sulfonamide] |
| – | – | – | – | 50 to 70% | CCCS(=O)(=O)Nc1ccc(F)c(C(=O)c2c[nH]c3ncc(-c4ccc(S(N)(=O)=O)cc4)cc23)c1F [Example 96, 4-(3-(2,6-difluoro-3-(propylsulfonamido)benzoyl)-pyrrolo[2,3-b]pyridin-5-yl)benzenesulfonamide] |
